Reference: US9499493B2, “2,4-pyrimidinediamine compounds and their uses” (Rigel Pharmaceuticals, Inc., priority 2002, dated 2016)

Assays:
[1] = tested on: cultured human mast cells (CHMC); test: CHMC low cell density ionomycin activation: tryptase assay; format: cell-based
[2] = tested on: cultured human mast cells (CHMC); test: CHMC low cell density IgE activation: tryptase assay; format: cell-based; details: anti-IgE
In short: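 Low-density CHMC assay: donor-adjusted 1000-1500 cells/well, MT buffer, 1 hr 37° C preincubation; anti-IgE stimulus 30 min 37° C versus MT-only controls; supernatant tryptase by substrate, 30 min RT.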

Cn1ncc2cc(Nc3ncc(F)c(Nc4ccc(Cl)cc4)n3)ccc21 [R935351, N4-(4-Chlorophenyl)-5-fluoro-N2-(1-methyl-indazoline-5-yl)-2,4-pyrimidinediamine]
IC50 [1]: > 10 µM
IC50 [2]: > 10 µM

ON=C(c1ccccc1)c1cccc(Nc2ncc(F)c(Nc3cccc(C(=NO)c4ccccc4)c3)n2)c1 [R950380, N2,N4-Bis(3-phenylcarbonyloximephenyl)-5-fluoro-2,4-pyrimidinediamine]
IC50 [1]: > 10 µM
IC50 [2]: 3 µM

CCOC(=O)COc1ccc(Nc2ncc(C(F)(F)F)c(Nc3ccc(OCC(=O)OCC)cc3)n2)cc1 [R925862, N2,N4-Bis[4-(ethoxycarbonylmethyleneoxy)phenyl]-5-trifluoromethyl-2,4-pyrimidinediamine]
IC50 [1]: > 10 µM
IC50 [2]: 0.7 µM

Cn1ncc2cc(Nc3ncc(F)c(Nc4ccc(F)c(F)c4)n3)ccc21 [R935358, N4-(3,4-Difluorophenyl)-5-fluoro-N2-(1-methylindazoline-5-yl)-2,4-pyrimidinediamine]
IC50 [1]: > 10 µM
IC50 [2]: > 10 µM

Cn1ncc2cc(Nc3nc(Nc4cccc(O)c4)ncc3F)ccc21 [R935204, 5-Fluoro-N2-(3-hydroxyphenyl)-N4-(1-methyl-indazoline-5-yl)-2,4-pyrimidinediamine]
IC50 [1]: > 10 µM
IC50 [2]: 0.554 µM

Oc1cccc(Nc2nc(Nc3ccc(OCc4nc(-c5ccccc5)no4)cc3)ncc2F)c1 [R935134, 5-Fluoro-N4-(3-hydroxyphenyl)-N2-[4-(3-phenyl-1,2,4-oxadiazol-5-yl)methyleneoxyphenyl]-2,4-pyrimidinediamine]
IC50 [1]: 1.8 µM
IC50 [2]: 0.909 µM

CNC(=O)COc1cccc(Nc2ncc(F)c(Nn3cccc3)n2)c1 [R935281, 5-Fluoro-N2-[3-(N-methylaminocarbonylmethyleneoxy)phenyl]-N4-(1H-pyrrol-1-yl)-2,4-pyrimidinediamine]
IC50 [1]: > 10 µM
IC50 [2]: 1.4 µM

CNC(=O)COc1cccc(Nc2ncc(F)c(Nc3cnc4c(c3)OCC(=O)N4)n2)c1 [R945242, 5-Fluoro-N2-(3-methylaminocarbonylmethyleneoxyphenyl)-N4-[2H-pyrido[3,2-b]-1,4-oxazin-3(4H)-one-7-yl]-2,4-pyrimidinediamine]
IC50 [1]: > 10 µM
IC50 [2]: 0.247 µM

O=C(CNc1cccc(Nc2ncc(F)c(Nc3ccc4c(c3)OCCO4)n2)c1)N1CCNCC1 [R950197, N4-(3,4-Ethylenedioxyphenyl)-5-fluoro-N2-[3-(N-piperazino)carbonylmethyleneaminophenyl]-5-fluoro-2,4-pyrimidinediamine]
IC50 [1]: > 10 µM
IC50 [2]: 0.531 µM

Fc1cnc(Nc2ccc3c(c2)OCCO3)nc1NNc1ccc2c(c1)OCO2 [R926406, N2-(3,4-Ethylenedioxyphenyl)-N4-(3,4-methylenedioxyphenylhydrazinyl)-5-fluoro-2-pyrimidineamine]
IC50 [1]: > 10 µM
IC50 [2]: > 10 µM

O=C(O)c1cnc(Nc2cccc(O)c2)nc1NC(C(=O)O)c1ccccc1 (stereo not drawn) [R926535, 5-Carboxy-N2-(3-hydroxyphenyl)-N4-[N-(L)-phenylglycine)-2-pyrimidineamine]
IC50 [1]: > 10 µM
IC50 [2]: > 10 µM

COC(=O)c1cc(Nc2ncc(F)c(Nc3ccc(OC(C)C)cc3)n2)cn1C [R935164, 5-Fluoro-N4-(4-isopropoxyphenyl)-N2-[(N-methyl-2-methoxycarbonyl)pyrrol-4-yl]-2,4-pyrimidinediamine]
IC50 [1]: > 10 µM
IC50 [2]: 0.204 µM

CNC(=O)CCn1ncc2ccc(Nc3nc(Nc4ccc5c(c4)OCCO5)ncc3F)cc21 [R935288, N2-(3,4-Ethylenedioxyphenyl)-5-fluoro-N4-[1-[2(N-methylaminocarbonyl)ethyl]-indazoline-6-yl]-2,4-pyrimidinediamine]
IC50 [1]: > 10 µM
IC50 [2]: 1.58 µM

Fc1ccc(Nc2ccnc(Nc3ccc(F)c(Cl)c3)n2)cc1Cl [R935163, N2,N4-Bis(3-chloro-4-fluoropheny)-2,4-pyrimidinediamine]
IC50 [1]: > 10 µM
IC50 [2]: > 10 µM

Cc1noc(COc2ccc(Nc3ncc(F)c(Nc4cccc(O)c4)n3)cc2)n1 [R935141, 5-Fluoro-N4-(3-hydroxyphenyl)-N2-[4-(3-methyl-1,2,4-oxadiazol-5-yl)methyleneoxyphenyl]-2,4-pyrimidinediamine]
IC50 [1]: > 10 µM
IC50 [2]: 0.727 µM

CS(=O)(=O)Nc1cccc(Nc2ncc(F)c(Nc3cccc(NS(C)(=O)=O)c3)n2)c1 [R950100]
IC50 [1]: > 10 µM
IC50 [2]: 0.71 µM

CCOC(=O)COc1cccc(Nc2ncc(F)c(Nc3cc(Cl)c(O)c(Cl)c3)n2)c1 [R950185, N4-(3,5-Dichloro-4-hydroxyphenyl)-N2-(3-ethoxycarbonylmethyleneoxyphenyl)-5-fluoro-2,4-pyrimidinediamine]
IC50 [1]: 8.81 µM
IC50 [2]: 1.03 µM

O=[N+]([O-])c1cccc(Nc2nc(Nc3ccc4c(c3)NCCO4)ncc2F)c1 [R950253]
IC50 [1]: > 10 µM
IC50 [2]: 0.697 µM

CNC(=O)CCn1ncc2cc(Nc3ncc(F)c(Nc4cccc(O)c4)n3)ccc21 [R935305, 5-Fluoro-N4-(3-hydroxyphenyl)-N2-[1-[2(N-methylaminocarbonyl)ethyl]-indazoline-5-yl]-2,4-pyrimidinediamine]
IC50 [1]: > 10 µM
IC50 [2]: 0.495 µM

CCOC(=O)c1cnc(N[C@H](C(=O)OCC)C(C)C)nc1N[C@H](C(=O)OCC)C(C)C [R926527, 2,4-Bis[N-(L)-valinylethyl ester]-5-ethoxycarbonylpyrimidine]
IC50 [1]: > 10 µM
IC50 [2]: > 10 µM

CNC(=O)COc1cccc(Nc2ncc(F)c(Nc3ccc4c(c3)OCC(=O)N4C)n2)c1 [R909261]
IC50 [1]: > 10 µM
IC50 [2]: 0.93 µM

CCOC(=O)CCn1ncc2ccc(Nc3nc(Nc4cccc(OC(C)C)c4)ncc3F)cc21 [R935289, N4-[1-(2-Ethoxycarbonylethyl)indazoline-6-yl]-5-fluoro-N2-(isopropoxyphenyl)-2,4-pyrimidinediamine]
IC50 [1]: > 10 µM
IC50 [2]: 1.69 µM

CCOC(=O)c1cnc(Nc2cccc3cn[nH]c23)nc1Nc1cccc2cn[nH]c12 [R926321, N2,N4-Bis(3-indazol-7-yl)-5-ethoxycarbonyl-2,4-pyrimidinediamine]
IC50 [1]: > 10 µM
IC50 [2]: > 10 µM

COc1cccc(CNC(=O)COc2ccc(Nc3nc(Nc4cccc(O)c4)ncc3Br)cc2)c1 [R925843, 5-Bromo-N2-(3-hydroxyphenyl)-N4-[4-(N-3-methoxybenzylamino)carbonylmethyleneoxyphenyl]-2,4-pyrimidinediamine]
IC50 [1]: > 10 µM
IC50 [2]: > 10 µM

CNC(=O)Cn1ncc2ccc(Nc3ncc(F)c(Nc4ccc5c(c4)OCCO5)n3)cc21 [R935212, N4-(3,4-ethylenedioxyphenyl)-5-fluoro-N2-[1-(N-methylaminocarbonyl)methyl-indazoline-6-yl]-2,4-pyrimidinediamine]
IC50 [1]: > 10 µM
IC50 [2]: 1.43 µM

Fc1cnc(Nc2ccc(OCc3nc(-c4ccccc4)no3)cc2)nc1Nc1ccc2c(c1)OCCO2 [R935136, N4-(3,4-Ethylenedioxyphenyl)-5-fluoro-N2-[4-(3-phenyl-1,2,4-oxadiazol-5-yl)methyleneoxyphenyl]-2,4-pyrimidinediamine]
IC50 [1]: 2.13 µM
IC50 [2]: 0.952 µM

CC(C)(C)OC(=O)COc1ccc(Nc2ncc(F)c(Nc3ccc(OCC(=O)OC(C)(C)C)cc3)n2)cc1 [R926574, N2,N4-Bis[4-(tert-butoxycarbonylmethyleneoxy)phenyl]-5-fluoro-2,4-pyrimidinediamine]
IC50 [1]: 2.63 µM
IC50 [2]: 1.96 µM
